Test results reported in patent US20240002374A1, “5-MEMBERED HETEROARYLAMINOSULFONAMIDES FOR TREATING CONDITIONS MEDIATED BY DEFICIENT CFTR ACTIVITY” (Genzyme Corporation, priority 2019, published 2024).

Biological target: T1, CFTR (primary human bronchial epithelial cells from a ΔF508 homozygous CF donor, CF-HBE cells) (Homo sapiens, UniProt P13569, DEL508-508)
T1 construct: Primary human bronchial epithelial cells from a ΔF508 homozygous CF donor; host or cells: primary human bronchial epithelial cells (CF-HBE) from a ΔF508 homozygous CF donor
Experiment: TECC24 recording of CFTR-mediated transepithelial chloride transport (TECC24 AUC fold over DMSO @ 3 μM)
Type: cell-based
Conditions: 3 uM test agent; CF-HBE cells (ΔF508 homozygous) incubated 48 h; ratio of test agent AUC of forskolin-stimulated IEQ to vehicle (DMSO) AUC
Description: Example 510: TECC24 AUC Fold Over DMSO @ 3 μM
The effects of a test agent on CFTR-mediated transepithelial chloride transport was measured using TECC24 recording analysis. Test agents were solubilized in DMSO. Solubilized test agents were mixed with incubation medium containing DMEM/F12, Ultroser G (2%; Crescent Chemical, catalog #67042), Hyclone Fetal Clone H (2%; GE Healthcare, catalog #SH30066.02), bovine brain extract (0.25%; Lonza, catalog #CC-4098), insulin (2.5 μg/mL), IL-13 (10 ng/mL), hydrocortisone (20 nM), transferrin (2.5 μg/mL), triiodothyronine (500 nM), ethanolamine (250 nM), epinephrine (1.5 μM), phosphoethanolamine (250 nM), and retinoic acid (10 nM). Primary human bronchial epithelial cells from a ΔF508 homozygous CF donor (CF-HBE cells; from University of North Carolina Cystic Fibrosis Tissue Procurement Center), grown on Transwell HTS 24-well cell culture inserts (Costar, catalog #3378), were exposed to test agents or controls dissolved in incubation medium. The CF-HBE cells were cultured at 36.5° C. for 48 h before TECC24 recordings were performed in the presence or absence of test agent, a positive control or vehicle (DMSO).
Following incubation, the transwell cell culture inserts containing the test agent or control-treated CF-HBE cells were loaded onto a TECC24 apparatus (TECC v7 or MTECC v2; EP Design) to record the transepithelial voltage (VT) and resistance (TEER) using 4 AgCl electrodes per well configured in current-clamp mode. The apical and basolateral bath solutions both contained (in mM) 140 NaCl, 5 KCl, 2 CaCl2), 1 MgCl2, 10 Hepes, and 10 glucose (adjusted to pH 7.4 with NaOH) […]. To inhibit basal Na+ absorption, the ENaC inhibitor benzamil (10 μM) was added to the bath. Then, the adenylate cyclase activator, forskolin (10 μM), was added to the bath to activate CFTR. The forskolin-stimulated Cl− transport was halted by addition of bumetanide (20 μM), an inhibitor of the basolateral chloride co-transporter NKCC1, to the bath to confirm that the detected signal was chloride dependent. VT and TEER recordings were digitally acquired at routine intervals using TECC or MTECC software (EP Design). VT and TEER were transformed into equivalent transepithelial Cl− current (IEQ), and the Area Under the Curve (AUC) of the IEQ time course between forskolin and bumetanide addition is generated using Excel (Microsoft). Efficacy is expressed as the ratio of the test agent AUC divided by vehicle AUC. EC50s based on AUC are generated using the non-linear regression log(agonist) vs. response function in Prism software (GraphPad) with Hill Slope fixed=1.
If a test agent increased the AUC of the forskolin-stimulated IEQ relative to vehicle in CF-HBE cells, and this increase was inhibited by bumetanide, then the test agent was considered a CFTR corrector.

T1 sequence (P13569 with tags, fused parts or gaps DEL508-508): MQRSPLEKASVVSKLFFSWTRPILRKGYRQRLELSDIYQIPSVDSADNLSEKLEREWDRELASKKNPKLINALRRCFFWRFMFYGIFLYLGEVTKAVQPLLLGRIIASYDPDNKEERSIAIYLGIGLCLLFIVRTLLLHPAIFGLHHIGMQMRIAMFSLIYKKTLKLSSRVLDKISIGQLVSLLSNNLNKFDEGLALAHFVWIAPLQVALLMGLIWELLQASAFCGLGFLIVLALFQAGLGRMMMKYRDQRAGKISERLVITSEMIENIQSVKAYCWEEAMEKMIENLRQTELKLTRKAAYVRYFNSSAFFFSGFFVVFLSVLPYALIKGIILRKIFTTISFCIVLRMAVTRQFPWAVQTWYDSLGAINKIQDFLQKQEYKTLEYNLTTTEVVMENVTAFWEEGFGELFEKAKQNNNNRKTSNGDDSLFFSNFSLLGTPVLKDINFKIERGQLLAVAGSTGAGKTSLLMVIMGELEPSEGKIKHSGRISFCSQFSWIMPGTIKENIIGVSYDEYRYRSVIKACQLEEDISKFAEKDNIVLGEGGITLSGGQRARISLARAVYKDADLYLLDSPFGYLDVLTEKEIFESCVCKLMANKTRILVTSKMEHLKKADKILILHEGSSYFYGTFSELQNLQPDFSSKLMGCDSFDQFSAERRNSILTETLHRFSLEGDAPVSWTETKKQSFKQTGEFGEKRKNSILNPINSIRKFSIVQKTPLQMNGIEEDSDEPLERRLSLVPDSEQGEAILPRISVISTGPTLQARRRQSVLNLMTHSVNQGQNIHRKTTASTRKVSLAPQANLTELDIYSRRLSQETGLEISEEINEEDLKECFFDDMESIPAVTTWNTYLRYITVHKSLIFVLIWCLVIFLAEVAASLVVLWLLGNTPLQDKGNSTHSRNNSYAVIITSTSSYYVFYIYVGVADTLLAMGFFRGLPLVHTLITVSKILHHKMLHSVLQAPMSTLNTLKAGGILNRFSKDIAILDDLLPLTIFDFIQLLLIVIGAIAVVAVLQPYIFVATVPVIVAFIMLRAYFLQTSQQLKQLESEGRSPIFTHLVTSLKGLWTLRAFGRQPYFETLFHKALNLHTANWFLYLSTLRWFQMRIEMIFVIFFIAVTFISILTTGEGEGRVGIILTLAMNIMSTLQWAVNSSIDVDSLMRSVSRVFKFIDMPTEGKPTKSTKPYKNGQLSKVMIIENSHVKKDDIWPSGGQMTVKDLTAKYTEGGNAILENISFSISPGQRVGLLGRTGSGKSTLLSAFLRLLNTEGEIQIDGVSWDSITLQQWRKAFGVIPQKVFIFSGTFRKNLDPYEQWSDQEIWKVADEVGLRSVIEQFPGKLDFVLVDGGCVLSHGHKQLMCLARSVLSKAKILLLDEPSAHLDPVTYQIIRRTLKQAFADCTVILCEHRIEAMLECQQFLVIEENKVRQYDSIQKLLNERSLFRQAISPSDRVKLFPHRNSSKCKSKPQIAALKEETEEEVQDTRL

Compound	TECC AUC vs. DMSO @ 3 uM
Nc1cccc(S(=O)(=O)Nc2nc(-c3ccccc3C(F)(F)F)c(-c3cccc([C@H]4CC[C@@H](OC(F)(F)F)C4)c3)s2)c1F (single isomer, unassigned) [Example 47A1]	C (“C” refers to AUC < 2)
Cc1cccc(C)c1-c1nc(NS(=O)(=O)c2cccnc2N)sc1-c1cc(F)cc(OCCC(C)(C)C)c1 [Example 35, 2-Amino-N-(5-(3-(3,3-dimethylbutoxy)-5-fluorophenyl)-4-(2,6-dimethylphenyl)thiazol-2-yl)pyridine-3-sulfonamide]	A (“A” refers to AUC > 5)
Cc1cccc(C)c1-c1nc(NS(=O)(=O)c2cccc(-c3ccn[nH]3)c2)sc1-c1cccc(OC2CCC(C)(C)C2)c1 (centres unmarked) [Example 29, N-(5-(3-((3,3-Dimethylcyclopentyl)oxy)phenyl)-4-(2,6-dimethylphenyl)thiazol-2-yl)-3-(1H-pyrazol-5-yl)benzenesulfonamide]	A (“A” refers to AUC > 5)
Cc1cccc(C)c1-c1nc(NS(=O)(=O)c2cccc(S(C)(=O)=O)c2)sc1-c1cc(F)cc(OCCC(C)(C)C)c1 [Example 242, N-[5-[3-(3,3-dimethylbutoxy)-5-fluorophenyl]-4-(2,6-dimethylphenyl)-1,3-thiazol-2-yl]-3-methylsulfonylbenzenesulfonamide]	A (“A” refers to AUC > 5)
Cc1cccc(C)c1-c1nc(NS(=O)(=O)c2cccc(-n3cccn3)c2)sc1-c1cccc(OC2CCC(C)(C)C2)c1 (centres unmarked) [Example 28, N-(5-(3-((3,3-Dimethylcyclopentyl)oxy)phenyl)-4-(2,6-dimethylphenyl)thiazol-2-yl)-3-(1H-pyrazol-1-yl)benzenesulfonamide]	A (“A” refers to AUC > 5)
CC(C)c1ccccc1-c1nc(NS(=O)(=O)c2cccc(N)n2)sc1-c1cccc(OCCC(C)(C)C)c1 [Example 30, 6-Amino-N-(5-(3-(3,3-Dimethylbutoxy)phenyl)-4-(2-isopropylphenyl)thiazol-2-yl)pyridine-2-sulfonamide]	A (“A” refers to AUC > 5)
CC(C)(C)CCOc1cc(F)cc(-c2sc(NS(=O)(=O)c3cccc(N)c3)nc2-c2ccc(C(F)(F)F)cc2)c1 [Example 9, 3-Amino-N-(5-(3-(3,3-dimethylbutoxy)-5-fluorophenyl)-4-(4-(trifluoromethyl)phenyl)thiazol-2-yl)benzenesulfonamide]	B (“B” refers to AUC 2-5)
Nc1cccc(S(=O)(=O)Nc2nc(-c3ccc(C(F)(F)F)cc3)c(-c3cc(F)cc(O[C@H]4CCC(OC(F)(F)F)C4)c3)s2)c1 (single isomer, unassigned) [Example 43A]	B (“B” refers to AUC 2-5)
CC(C)c1ccccc1-c1nc(NS(=O)(=O)c2ccnc(N)c2)sc1-c1cc(F)cc(OCCC(C)(C)C)c1 [Example 33, 2-Amino-N-(5-(3-(3,3-dimethylbutoxy)-5-fluorophenyl)-4-(2-isopropylphenyl)thiazol-2-yl)pyridine-4-sulfonamide]	A (“A” refers to AUC > 5)
COC(=O)C1CCCC(Nc2cccc(S(=O)(=O)Nc3nc(-c4c(C)cccc4C)c(-c4cccc(OCCC(C)(C)C)c4)s3)n2)C1 (centres unmarked) [Example 435, methyl 3-[[6-[[5-[3-(3,3-dimethylbutoxy)phenyl]-4-(2,6-dimethylphenyl)-1,3-thiazol-2-yl]sulfamoyl]pyridin-2-yl]amino]cyclohexane-1-carboxylate]	A (“A” refers to AUC > 5)
CC(C)Oc1ccccc1-c1nc(NS(=O)(=O)c2ccccc2)sc1-c1cccc(OCC(C)(C)C)c1 [Example 4, N-(4-(2-Isopropoxyphenyl)-5-(3-(neopentyloxy)phenyl)thiazol-2-yl)benzenesulfonamide]	B (“B” refers to AUC 2-5)
Cc1cccc(C)c1-c1nc(NS(=O)(=O)c2cccc(N(C)C)n2)sc1-c1cc(F)cc(OCCC(C)(C)C)c1 [Example 240, 6-(dimethylamino)-N-[5-[3-(3,3-dimethylbutoxy)-5-fluorophenyl]-4-(2,6-dimethylphenyl)-1,3-thiazol-2-yl]pyridine-2-sulfonamide]	A (“A” refers to AUC > 5)
CC(Oc1cc(F)ccc1-c1nc(NS(=O)(=O)c2ccn(C)n2)sc1-c1cc(F)cc(OCCC(C)(C)C)c1)C(F)(F)F (centres unmarked) [Example 5, N-(5-(3-(3,3-Dimethylbutoxy)-5-fluorophenyl)-4-(4-fluoro-2-((1,1,1-trifluoropropan-2-yl)oxy)phenyl)thiazol-2-yl)-1-methyl-1H-pyrazole-3-sulfonamide]	B (“B” refers to AUC 2-5)
O=S(=O)(Nc1nc(-c2ccccc2C(F)(F)F)c(-c2cccc([C@@H]3CC[C@H](OC(F)(F)F)C3)c2)s1)c1ccccc1 (single isomer, unassigned) [Example 44B2]	C (“C” refers to AUC < 2)
CC(C)c1ccccc1-c1nc(NS(=O)(=O)c2ccccc2)sc1-c1cc(F)cc(OCCC(C)(C)C)c1 [Example 3, N-(5-(3-(3,3-Dimethylbutoxy)-5-fluorophenyl)-4-(2-isopropylphenyl)thiazol-2-yl)benzenesulfonamide]	A (“A” refers to AUC > 5)
Cc1cccc(C)c1-c1nc(NS(=O)(=O)c2ccccc2)sc1-c1cccc(OCCC(C)(C)C)c1 [Example 16, N-(5-(3-(3,3-Dimethylbutoxy)phenyl)-4-(2,6-dimethylphenyl)thiazol-2-yl)benzenesulfonamide]	A (“A” refers to AUC > 5)
Cc1cccc(C)c1-c1nc(NS(=O)(=O)c2ccc(F)c(N)c2)sc1-c1cc(F)cc(OCCC(C)(C)C)c1 [Example 42, 3-Amino-N-(5-(3-(3,3-dimethylbutoxy)-5-fluorophenyl)-4-(2,6-dimethylphenyl)thiazol-2-yl)-4-fluorobenzenesulfonamide]	B (“B” refers to AUC 2-5)
Cc1cccc(C)c1-c1nc(NS(=O)(=O)c2cccc(N(C)C)n2)sc1-c1cccc(C2CCC(C)(C)C2)c1 (centres unmarked) [Example 342, 6-(dimethylamino)-N-[5-[3-(3,3-dimethylcyclopentyl)phenyl]-4-(2,6-dimethylphenyl)-1,3-thiazol-2-yl]pyridine-2-sulfonamide]	A (“A” refers to AUC > 5)
Cc1nn(C)cc1S(=O)(=O)Nc1nc(-c2ccccc2C(F)(F)F)c(-c2cccc([C@@H]3CC[C@@H](OC(F)(F)F)C3)c2)s1 (single isomer, unassigned) [Example 45B2]	C (“C” refers to AUC < 2)
CC(C)(C)CCOc1cccc(-c2sc(NS(=O)(=O)c3cccc(N)c3)nc2-c2ccccc2C(F)(F)F)c1 [Example 8, 3-Amino-N-[5-[3-(3,3-dimethylbutoxy)phenyl]-4-[2-(trifluoromethyl)phenyl]thiazol-2-yl]benzenesulfonamide]	A (“A” refers to AUC > 5)
Cc1cccc(C)c1-c1nc(NS(=O)(=O)c2cc(N)ccc2F)sc1-c1ccc(F)c(OCC(C)(C)C(F)(F)F)c1 [Example 12, 5-Amino-N-(4-(2,6-dimethylphenyl)-5-(4-fluoro-3-(3,3,3-trifluoro-2,2-dimethylpropoxy)phenyl)thiazol-2-yl)-2-fluorobenzenesulfonamide]	A (“A” refers to AUC > 5)
Cc1nn(C)cc1S(=O)(=O)Nc1nc(-c2ccccc2C(F)(F)F)c(-c2cccc([C@H]3CC[C@H](OC(F)(F)F)C3)c2)s1 (single isomer, unassigned) [Example 45A2]	B (“B” refers to AUC 2-5)
CC(C)(C)CCCOc1ccn(-c2sc(NS(=O)(=O)c3ccccc3)nc2-c2ccccc2C(F)(F)F)n1 [Example 40, N-(5-(3-((4,4-Dimethylpentyl)oxy)-1H-pyrazol-1-yl)-4-(2-(trifluoromethyl)phenyl)thiazol-2-yl)benzenesulfonamide]	A (“A” refers to AUC > 5)
